Measurements reported in patent US12521423B2, “Method and composition for treating gastrointestinal inflammatory disorders” (THE REGENTS OF THE UNIVERSITY OF COLORADO, a body corporate, priority 2019, dated 2026).
Like-named read-outs stand apart in the source and are kept apart here.

Tests used:
T84 cells [1] = assay: HPLC adenylate and energy metabolite analyses of treated T84 cells; assay type: cell-based
T84 cells [2] = assay: calcium switch assay / transepithelial resistance of T84 monolayers; assay type: cell-based
Description: This model utilizes transient divalent cation chelation to disrupt epithelial tight junctions in fully confluent cells.
Briefly, polarized, high-resistant (>1,500 Ω·cm2) T84 monolayers on 0.33 cm^2 (non-metabolomic) or 5 cm^2 (metabolomics) transwell inserts (Costar, 0.4 μm) were equilibrated for 1 h in HBSS in the case of non-metabolomic analyses and approx. 20 h in the case of metabolomic analyses. All experiments were performed at 37° C. and transepithelial resistance monitored using a voltohmeter (World Precision Instruments EVOM). Extracellular Ca^2+ was chelated via washing and incubation with Ca^2+-free HBSS supplemented with 2 mM EDTA for 5 min, after which the samples were washed into HBSS with normal calcium (1.8 mM).
To our surprise, this analysis identified an inverse correlation between Hpx and barrier, with Hpx spiking from approx. 1 to 3.5 μM (p<0.004) at the barrier nadir. […] To extend this observation, T84 cells were supplemented with Hpx (range 0.1-1 mM, 20 h) and a calcium switch assay performed.
Allopurinol (Allo) is a structural analog of hypoxanthine commonly used to treat gout. The drug is metabolized into oxipurinol by xanthine oxidase (XO), which in turn inhibits XO and decreases uric acid. Allopurinol was employed as a competitive substrate/inhibitor for hypoxanthine-guanine phosphoribosyl transferase (HGPRT) to assess the contribution of Hpx salvage to the barrier formation process using the calcium switch assay and transepithelial resistance measurements described above.

T84 cells [3] = conditions: 1 mM Hpx
Description: To examine the impact of Hpx supplementation on epithelial function during physiologically-relevant metabolic stress, T84 cells were exposed to hypoxia (1% O2, 40 h) in the presence and absence of 1 mM Hpx, and barrier and adenylate metabolites monitored.

[4] = system: colonic adenylate and energy metabolism; conditions: Hpx 1 mM enema 5 and 18 h before sacrifice
Description: To assess the influence of purine supplementation on colonic adenylate and energy metabolism, MDP was depleted by treating mice with streptomycin, and reconstituted by administration of Hpx (1 mM) by enema at time points of 5 and 18 h before sacrifice and distal colon tissue metabolite extracts analyzed.

[5] = 10 mM Hpx in drinking water
Description: (§1) To validate the role of exogenous purine supply on colonic function, streptomycin-treated mice (S-0 mM HPX-DSS) were supplemented with 1 and 5 mM Hpx (S-1 mM HPX-DSS and S-5 mM HPX-DSS) in their drinking water and submitted to DSS colitis.

DSS colitis = conditions: for body weight lost: no Hpx ~9; for sterility index: from 0; for tissue AEC: from 0.30; for BiP: from 0.41; for sterile inner mucin layer: from ~1; for colon length: no Hpx ~5.75
Description: as §1

T84 cells [6] = conditions: 1 mM hypoxanthine, 88 h, p<0.001
Description: We also employed a scratch wound assay to assess the influence of Hpx supplementation on cellular restitution. T84 cells were plated at 35,000 cells per well on a 96-well ImageLock tissue culture plate (Essen Bioscience Inc.) and incubated in standard conditions until a confluent cell monolayer formed (˜24 h). Precise and reproducible wounds were made in all wells with a WoundMaker (Essen Bioscience Inc.). […] Initial images were taken immediately after wounding at 10× using the IncuCyte live-cell imaging (Essen Bioscience Inc.), and then every 2 h over the course of 88 h in culture. Relative wound closure (%) was quantified for every image using the relative wound density metric, a measure of cell density in the wound area relative to the cell density outside of the wound area.

murine microbiota = assay: HPLC analyses of murine fecal extracts after streptomycin treatment; assay type: in vivo, mice
Excerpt: Analyses of soluble, extracellular murine fecal metabolite extracts by HPLC identified substantial levels of available purine (˜550 nmol/g), primarily as hypoxanthine (Hpx, ˜350 nmol/g). The production of purines by the microbiota was verified by fecal extract analyses of streptomycin-treated mice, which decreased the available fecal purine more than 80%, lowering available Hpx to <50 nmol/g.

[7] = system: total colonic purine levels; assay: colon tissue metabolites at baseline in CR mice, streptomycin treatment and K12 colonization; assay type: in vivo; conditions: no DSS
Description: (§2) Bacterial supply of purine was depleted in CR mice (CR-CNTL) via streptomycin treatment (S-CR-CNTL), and reconstituted by colonization with streptomycin-resistant K12 (S-CR-K12).

DSS-induced colitis = assay: DSS colitis in CR mice, streptomycin treatment and K12 colonization; conditions: colon tissue
Description: as §2
Visualization of the colon tissues by hematoxylin and eosin (H&E) staining in the CR mouse groups reveal two key differences between tissue with and without MDP supply. […] These phenotypes correlate with the adenylate energy charge (AEC, (ATP+0.5×ADP)/(ATP+ADP+AMP))—a commonly used index used to indicate cellular energy status that is defined by relative adenine nucleotide levels, providing a more functionally relevant indicator of energy balance than ATP and/or PCr alone.
Given the association between the AEC and cellular function and the metabolic data indicative of MDP promoting flux through ATP, the colon tissue analyses were extended to Ki67 as marker of proliferation.
Due to the importance of ATP supply for ER function, the colon tissue immunofluorescent analyses were extended to BiP as a marker of ER stress and the UPR.
Goblet cells require robust ER function for mucin protein folding and dimerization, prompting analyses of the impact of MDP on colonic mucin production and secretion. To observe mucin production tissue sections were stained with alcian blue. […]

[8] = subconfluent T84 cells, Allo 20 h

**Q.** Which “Hpx increase in T84 IECs” value (T84 cells [1]; 100 μM ADP) does the source give for `Nc1ncnc2c1ncn2[C@@H]1O[C@H](COP(=O)(O)OP(=O)(O)O)[C@@H](O)[C@H]1O` [ADP, adenosine diphosphate] here?
**A.** ~15 fold

**Q.** With `Oc1ncnc2[nH]ncc12` [Allo, Allopurinol] as the compound, how does the “T84 cell barrier formation” value (T84 cells [2]; Allo 1 mM, p<0.001) read?
**A.** significantly attenuated

**Q.** And the “Adenine, IMP, and UA levels” value (T84 cells [1]; [8])?
**A.** undetectable to trace levels

**Q.** And the TAE (T84 cells [1]; [8])?
**A.** corresponding increase

**Q.** What about the “Xan and Ino levels” value (T84 cells [1]; [8]) of the same compound?
**A.** small increases

**Q.** What about the PCr level (T84 cells [1]; subconfluent T84 cells, Allo 20 h, from approx. 20) of the same compound?
**A.** ~27 µM

**Q.** And the Hpx level (T84 cells [1]; subconfluent T84 cells, Allo 20 h, from approx. 400)?
**A.** ~250 nM

**Q.** And the Ado level (T84 cells [1]; subconfluent T84 cells, Allo 20 h, from trace/undetectable)?
**A.** approx. 400 nM

**Q.** Which “barrier throughout the course of the experiment” value (T84 cells [2]; 300 μM and 1 mM Hpx, p<0.03) does the source give for `O=c1[nH]cnc2nc[nH]c12` [Hpx, hypoxanthine] here?
**A.** improved barrier

**Q.** And the “cellular barrier and barrier reformation (calcium switch)” value (T84 cells [2]; Hpx pre-loading 0.1-1 mM, 20 h)?
**A.** protective of cellular barrier and promoted barrier reformation in a dose-responsive manner

**Q.** What about the “increase of intracellular Hpx levels” value (T84 cells [1]; T84 cells, Hpx 0.1-1 mM, 20 h pre-exposure) of the same compound?
**A.** up to 100 fold

**Q.** What about the “total available energy (TAE) under hypoxia” value (T84 cells [3]; hypoxia 1% O2) of the same compound?
**A.** significant recovery

**Q.** And the “increase of overall barrier resistance above control conditions” value (T84 cells [3]; hypoxia 1% O2, 40 h)?
**A.** approx. 1.3 fold

**Q.** And the “colonic AMP” value ([4]; from 58)?
**A.** 84 nmol/g

**Q.** And the “colonic ADP” value ([4]; from 80)?
**A.** 123 nmol/g

**Q.** And the “colonic ATP” value ([4]; from 192)?
**A.** 154 nmol/g

**Q.** What about the total colonic purine ([4]; from 490) of the same compound?
**A.** 560 nmol/g

**Q.** What about the “colonic phosphocreatine (PCr)” value ([4]; from 3700) of the same compound?
**A.** 2000 nmol/g

**Q.** What about the urination [5] of the same compound?
**A.** excessively urinate

**Q.** What about the body weight lost (DSS colitis; 1 mM Hpx in drinking water) of the same compound?
**A.** ~3%

**Q.** What about the sterility index (DSS colitis; 1 mM Hpx) of the same compound?
**A.** 0.56

**Q.** What about the tissue proliferation (DSS colitis; 1 mM Hpx, from 0.22) of the same compound?
**A.** 0.54 Ki67/DAPI

**Q.** And the “tissue AEC” value (DSS colitis; 1 mM Hpx)?
**A.** 0.38

**Q.** What about the BiP (DSS colitis; 1 mM Hpx) of the same compound?
**A.** 0.23 BiP/DAPI

**Q.** What about the “sterile inner mucin layer” value (DSS colitis; 1 mM Hpx) of the same compound?
**A.** ~9 μm

**Q.** And the colon length (DSS colitis; 1 mM Hpx)?
**A.** ~6.3 cm

**Q.** And the body weight lost (DSS colitis; 5 mM Hpx in drinking water)?
**A.** ~7%

**Q.** What about the tissue proliferation (DSS colitis; 5 mM Hpx, control 0.22) of the same compound?
**A.** 0.19 Ki67/DAPI

**Q.** What about the sterility index (DSS colitis; 5 mM Hpx) of the same compound?
**A.** 0.78

**Q.** And the “tissue AEC” value (DSS colitis; 5 mM Hpx)?
**A.** 0.42

**Q.** What about the BiP (DSS colitis; 5 mM Hpx) of the same compound?
**A.** 0.24 BiP/DAPI

**Q.** And the “sterile inner mucin layer” value (DSS colitis; 5 mM Hpx)?
**A.** ~11 μm

**Q.** What about the colon length (DSS colitis; 5 mM Hpx) of the same compound?
**A.** ~6.5 cm

**Q.** What about the “epithelial cell population and mucin production (H&E)” value (DSS colitis; Hpx supplementation) of the same compound?
**A.** recovered

**Q.** And the “goblet cell mucin production, thecal volumes” value (DSS colitis; Hpx supplementation)?
**A.** increased thecal volumes

**Q.** And the “increase of epithelial wound closure rate following scratching” value (T84 cells [6])?
**A.** approx. 1.5 fold

**Q.** With `Nc1ncnc2c1ncn2[C@@H]1O[C@H](CO)[C@@H](O)[C@H]1O` [adenosine] as the compound, how does the “Hpx increase in T84 IECs” value (T84 cells [1]; 1 mM adenosine) read?
**A.** over 150 fold

**Q.** For `[H]/N=C(/N)N[C@H]1[C@H](O)[C@@H](O)[C@H](O[C@@H]2O[C@@H](C)[C@](O)(C=O)[C@H]2O[C@@H]2O[C@@H](CO)[C@H](O)[C@@H](O)[C@@H]2NC)[C@@H](N/C(N)=N\[H])[C@@H]1O` [streptomycin], which measurable fecal hypoxanthine (murine microbiota; 1 day after streptomycin treatment) is on record?
**A.** nearly complete loss

**Q.** What about the “available fecal Hpx” value (murine microbiota; streptomycin-treated mice) of the same compound?
**A.** < 50 nmol/g

**Q.** And the “decrease of available fecal purine” value (murine microbiota; streptomycin-treated mice)?
**A.** more than 80%

**Q.** And the “colon tissue Xan” value ([7]; CR-CNTL 207)?
**A.** 69 nmol/g

**Q.** What about the “total colonic purine levels” value ([7]; CR-CNTL 809) of the same compound?
**A.** 630 nmol/g

**Q.** And the “goblet cell thecal volumes (alcian blue)” value (DSS-induced colitis)?
**A.** broad decline

**Q.** What about the “adenylate energy charge (AEC)” value (DSS-induced colitis; CR-CNTL-DSS 0.51) of the same compound?
**A.** 0.44
